Results published in patent US20090324718A1, “IMATINIB COMPOSITIONS” (priority 2006, published 2009).
Where a name gives a salt, the structure may show the parent alone.

Key:
Assay type in all cases: physicochemical
[1] = Chemical stability on storage: HPLC Assay and Impurities and Degradation Determination (IDD); details: for Chemical: Assay: HPLC; for Chemical: main deg: HPLC IDD
Protocol: The term “chemical stability” as used herein relates to the presence or absence of degradation products of the active pharmaceutical ingredient (API) as measure over time. Chemical stability is measured as the Assay of the material and/or the level of degradants. Stability is defined as having an Assay of at least about 90%, as determined by an HPLC assay method and/or having a minimum level of degradants, as determined by an HPLC Impurities and Degradation Determination (IDD) method over time. Preferably, a chemically stable composition as in the present inventor has an assay of at least 95%, more preferably at least 98%, as determined by an HPLC assay over time (storage time).
The stability of the examples described herein were tested using various analytical methods. One analytic method used is a determination using HPLC. The following HPLC method was used for the examples described below where HPLC was used as an analytic method.
(§1) The table below summarizes all test results (Assay, IDD, weight gain, and appearance). The appearance data is scored from 1 to 5 (1=very good (no change in color and texture of the sample), see an example of “Score=1” in Table 2, example 10, Day 0, 5=not good (changed both in color (became yellow) and in texture (absorbed water and reduced shine of sample)), see an example of “Score=4-5” in Table 2, example 9, time Day 5), and is supported by pictures presented in Table 2.

[2] = Physical form of the active drug in the sample; details: 55° C./75% RH Day 0
[3] = Physical stability on storage: appearance score (color and texture); set-up: key to Appearance, scale: 1 = good 5 = bad / Appearance / Appearance t = 7 days / Appearance t = 14 days: 1=very good (no change in color and texture of the sample); 5=not good (changed both in color (became yellow) and in texture (absorbed water and reduced shine of sample)); details: for Appearance, scale: 1 = good 5 = bad: 55° C./75% RH Day 0; for Appearance: 55° C./75% RH Day 5; for Appearance t = 7 days / Appearance t = 14 days / Appearance t = 28 days: 40° C./75% RH
Text: As used herein the term “physical stability” of a composition means the appearance of the composition is substantially unchanged and/or the hygroscopicity is low.
The term “appearance” as used herein describes the color and texture of a composition. The color of a composition according to a scored scale, as assessed by one of ordinary skill in the art in view of the following guidelines. A discoloration score of 1 indicates material without discoloration, whereas a discoloration score of 5 indicates severe discoloration (almost complete discoloration) relative to the color of the material as obtained after preparation and prior to storage. In the present invention the composition preferably has a white color immediately after processing and generally remains white if stable. Discoloration to a yellow color is typical when the composition is unstable. Similarly, a texture score of 1 indicates material having an uniform and smooth texture, whereas a texture score of 5 indicates a nonuniform and rough texture. The texture may be determined by visual inspection by one of ordinary skill in the art. For both discoloration and texture, scores 2 to 4 represent 5 “some or slight (change)” for a score of 2, “medium (change)” for a score of 3, and “substantial (change)” for a score of 4.
as §1

[4] = Hygroscopicity of imatinib depending on the physical structure of the active drug
[5] = Gain of weight (moisture uptake) on storage at 40° C./75% RH
Text: Texture is often highly correlated with hygroscopicity. Water/moisture absorption tends to reduce shine, for example. Water hygroscopicity can be determined by weight gain analyses.
Embodiments of the invention are preferably packaged with a desiccant, such as silica. The container preferably has a high moisture barrier, examples of which are known in the art. In a preferred packaged pharmaceutical composition of the present invention an amount of desiccant which will assure a weight gain due to moisture of not more than (NMT) 5%, preferably 0.5%, more preferably 0.05%, is preferred in order to maintain a good appearance and low water absorption for a maximum period of time. For example, the weight gain of the packaged material of the present invention after storage (i) at a temperature of about 55° C. and about 75% relative humidity for 5 days, and/or (ii) at a temperature of about 40° C. and about 75% relative humidity for 30 days, is less than about 15%, preferably less than about 10%, more preferably less than about 5% by weight.

SMILES | Chemical: Assay ([1]; 55° C./75% RH Day 0) | Chemical: main deg ([1]; 55° C./75% RH Day 0) | Chemical: Assay ([1]; 55° C./75% RH Day 5) | Chemical: main deg ([1]; 55° C./75% RH Day 5) | Physical [2] | Appearance, scale: 1 = good 5 = bad [3] | Appearance [3] | hygroscopicity compared to crystalline material [4] | Appearance t = 7 days [3] | Appearance t = 14 days [3] | Appearance t = 28 days [3] | Wt gain T = 7 days [5] [%] | Wt gain T = 14 days [5] [%] | Wt gain T = 28 days [5] [%]
Cc1ccc(NC(=O)c2ccc(CN3CCN(C)CC3)cc2)cc1Nc1nccc(-c2cccnc2)n1 [Active drug (Amorphous), imatinib mesylate] | 88.6 | 0.46 | 97.8 | 0.44 | amrph | 1 | 5 | much more hygroscopic | – | – | – | – | – | –
Cc1ccc(NC(=O)c2ccc(CN3CCN(C)CC3)cc2)cc1Nc1nccc(-c2cccnc2)n1 [Active drug (Crystalline 1), imatinib mesylate] | 97.5 | 0.12 | 98.8 | 0.12 | Alpha | 1 | 1 | – | – | – | – | – | – | –
Cc1ccc(NC(=O)c2ccc(CN3CCN(C)CC3)cc2)cc1Nc1nccc(-c2cccnc2)n1 [Active drug (Crystalline 2) Packed with silica] [imatinib mesylate] | – | – | – | – | – | – | – | – | 1 | 1 | 2 | 12.42 | 7.79 | 8.86
Cc1ccc(NC(=O)c2ccc(CN3CCN(C)CC3)cc2)cc1Nc1nccc(-c2cccnc2)n1 [Active drug (Crystalline 2), imatinib mesylate] | 94.5 | 0.11 | 98.8 | 0.13 | – | 1 | 4 | – | 1 | 1-2 | 3 | 21.49 | 17.75 | 18.3
